Results published in PubChem BioAssay (NCI).
Values joined by “and” are separate entries in the source; they are usually repeats but may differ in a detail not shown here. Equal entries are not always repeated.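 Cultured in 96-well plates, cells were exposed to test compound for 48 hours across five concentrations. GI50 marks 50% less growth. Definition used: TGI = concentration required for complete inhibition of growth.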

What was measured:
Assay in all cases: NCI anticancer screen, dose series, 48 h
DU-145 prostate = test system: DU-145 prostate
HT29 colon = test system: HT29 colon
OVCAR-4 ovarian = test system: OVCAR-4 ovarian
K-562 leukemia = test system: K-562 leukemia
HCC-2998 colon = test system: HCC-2998 colon
A549 NSCLC = test system: A549 NSCLC
BT-549 breast = test system: BT-549 breast
SF-295 CNS = test system: SF-295 CNS
OVCAR-5 ovarian = test system: OVCAR-5 ovarian
HCT-116 colon = test system: HCT-116 colon
RPMI-8226 leukemia = test system: RPMI-8226 leukemia

| Compound | TGI (DU-145 prostate) [µM] | TGI (HT29 colon) [µM] | TGI (OVCAR-4 ovarian) [µM] | TGI (K-562 leukemia) [µM] | TGI (HCC-2998 colon) [µM] | TGI (A549 NSCLC) [µM] | TGI (BT-549 breast) [µM] | TGI (SF-295 CNS) [µM] | TGI (OVCAR-5 ovarian) [µM] | TGI (HCT-116 colon) [µM] | TGI (RPMI-8226 leukemia) [µM] | GI50 (HT29 colon) | GI50 (OVCAR-5 ovarian) [µM] | GI50 (OVCAR-4 ovarian) [µM] | GI50 (K-562 leukemia) [µM] | GI50 (HCC-2998 colon) [µM] | GI50 (A549 NSCLC) [µM] | GI50 (HCT-116 colon) | GI50 (SF-295 CNS) [µM] | GI50 (RPMI-8226 leukemia) |
| --- | --- | --- | --- | --- | --- | --- | --- | --- | --- | --- | --- | --- | --- | --- | --- | --- | --- | --- | --- | --- |
| CCn1c(=O)c2c3cc(O)ccc3oc2c2ccc(O)cc21 | > 100 | 77.5 | > 100 | > 100 | 50.9 | 86.9 | 76.7 | > 100 | – | – | – | – | – | – | – | – | – | – | – | – |
| O=C1/C(=C/c2ccc(Br)s2)NC(=S)N1CN1CCOCC1 | > 100 | > 100 | > 100 | 99.2 | > 100 | – | > 100 | > 100 | > 100 | > 100 | 43 | – | – | – | – | – | – | – | – | – |
| COc1ccc(CNc2nc3ccc(C(F)(F)F)cc3nc2-c2ccccc2)cc1OC | – | > 100 | – | – | > 100 | > 100 | – | > 100 | > 100 | > 100 | > 100 | – | – | – | – | – | – | – | – | – |
| O=C1NC(=S)NC(=O)C1C(c1ccccc1[N+](=O)[O-])C1C(=O)NC(=S)NC1=O | > 100 | > 100 | > 100 | > 100 | – | > 100 | > 100 | > 100 | > 100 | > 100 | > 100 | – | – | – | – | – | – | – | – | – |
| Cc1cc(C)c2c(n1)S(=O)(=O)N(CCCN1CCN(c3cccc(C(F)(F)F)c3)CC1)/C(=C(\O)c1ccc(Cl)cc1)C2=O | 19.9 | 13.3 | 15.1 | > 100 | – | 13.1 | 19.3 | 14.2 | 18.1 | 11.9 | – | – | – | – | – | – | – | – | – | – |
| Cc1cccc(N(CCC#N)S(=O)(=O)c2ccccc2)c1 | > 100 | > 100 | > 100 | > 100 | > 100 | > 100 | > 100 | – | > 100 | > 100 | > 100 | – | – | – | – | – | – | – | – | – |
| CC(C)/C(Cl)=N\OC(=O)NNc1ccccc1 | > 100 | > 100 | > 100 | – | > 100 | > 100 | > 100 | > 100 | > 100 | > 100 | 1.34 | – | – | – | – | – | – | – | – | – |
| Cc1cccc(C[C@@]2(SCc3ccccc3)C(C)(C)[C@@H]3CC[C@@]2(C)C3)n1 | 32.2 | 31.9 | – | 28.9 | 28.8 | 51.1 | 42.6 | 29.1 | 34.9 | 31.9 | 30.5 | – | – | – | – | – | – | – | – | – |
| CN(C)c1ccc(/C(Br)=C2\OC(=O)c3ccccc32)cc1 | > 100 | > 100 | > 100 | > 100 | > 100 | > 100 | – | > 100 | > 100 | > 100 | 71.7 | – | – | – | – | – | – | – | – | – |
| Cc1ccc(C2=Nc3c(c(C)nn3-c3ccccc3)N=C(C(=O)O)C2)cc1 | > 10 | > 10 | > 10 | > 10 | > 10 | > 10 | > 10 | > 10 | > 10 | > 10 | – | – | – | – | – | – | – | – | – | – |
| COc1cc([C@@H]2c3cc4c(cc3C[C@H]3COC(=O)[C@@H]32)OCO4)cc(OC)c1OC | 0.00914 | – | > 50 | 21.9 | 1.01 | > 50 | – | 0.00833 | > 50 | – | 6.57 | 0.00294 µM and 0.00647 µM | 0.00692 | 21.8 | 0.00404 | 0.00446 | 0.00375 | 0.0026 µM and 0.00848 µM | 0.00296 | 0.00382 µM and 0.01 µM |
